Legend:
[1] = test system: cells treated with βA peptide; test: Protection of cells from βA peptide insult, statements in words (MTT assay, cells not singled out); assay type: cell-based; details: MTT reduction assay; PC12, IMR32, HUVEC cells where named in the sentence
Method: (§1) The degree of βA insult was measured by 3-[4,5-dimethylthiazol-2-yl]-2,5-diphenyltetrazolium bromide (MTT) reduction assay. […] The detection of cell growth or cell death can be determined by observing the conversion of MTT to the colored product, MTT formazan, the concentration of which can be measured […] at 550 nm.
(§2) Cells were incubated in MTT solution (5 mg/ml) at 37° C. for 2 hours. During this time, cells were observed under a microscope every 15 min. Cells were incubated in Lysing buffer (100 μl) overnight at 37° C. Colorimetric determination of MTT reduction was made at 550 nm.

PC12 cells = test: MTT reduction assay, βA peptide-induced toxicity, PC12 cells; assay type: cell-based, rat
Method: as §1, §2
(§3) PC12 rat pheochromocytoma and IMR32 human neuroblastoma cells were obtained from the American Type Culture Collection (ATCC). HUVEC normal umbilical human vein endothelial cells were obtained from Clonetics (San Diego, Calif.). Cells were routinely cultured on a tissue culture plate (Corning, N.Y., N.Y.). PC12 cells were grown in high glucose Dulbecco's Modified Eagle Medium (DMEM), 10% horse serum, 5% fetal calf serum, and 1% penicillin/streptomycin. IMR32 cells were grown in 90% DMEM and 10% fetal calf serum with 1% penicillin/streptomycin. HUVEC cells were grown in EGM-2 Bullet Kit (Clonetics, San Diego, Calif.).
PC12 cells were cultured routinely on polystyrene-coated Corning tissue culture plates. […] The 96-well plates were coated with rat tail collagen (Boehringer Mannheim) in order to promote uniform PC12 cell attachment and growth.

HUVEC cells = test: MTT reduction assay, βA peptide-induced toxicity, HUVEC cells; assay type: cell-based, human
Method: as §1, §2, §3

IMR32 cells = test: MTT reduction assay, βA peptide-induced toxicity, IMR32 cells; assay type: cell-based, human
Method: as §1, §2, §3

[2] = Antioxidant assay, scavenging of DPPH free radicals; details: for Antioxidant IC50: Table 2, synthesized curcuminoids, DPPH; for Antioxidant activity (DPPH free radical scavenging), in words: optical density change of DPPH radicals at 515 nm
Method: Kim et al., Neurosci Lett 303, 57 (2001) and Barik et al., Free Radic Biol Med 39, 811 (2005).
Using an antioxidant assay, the antioxidant potency of the compounds of the invention was evaluated. 1,1-Diphenyl-2-picrylhydrazyl (DPPH) is known to generate stable free radicals in aqueous and ethanolic solutions. The ability of the compounds of the invention to scavenge these free radicals was measured by observing the optical density change of DPPH radicals at 515 nm. Kim et al., Neurosci Lett 303, 57 (2001) and Barik et al., Free Radic Biol Med 39, 811 (2005).
The samples were prepared in various concentrations (200, 20, 2.0, and 0.2 μg/ml) by serial dilution of a stock solution (5 mg/ml) and were tested by the following procedure. Reaction mixtures containing test compounds (dissolved in DMSO) and 300 μM DPPH ethanolic solution in 96-well microtiter plates were incubated at 37° C. for 30 min. and absorbance was measured at 515 nm. Percent inhibition by sample treatment was determined by comparison with a DMSO-treated […] control group. IC50 values were determined from percent inhibition by sample. IC50 values denote the concentration of the tested compound that was required to scavenge 50% of the DPPH free radicals.

[3] = Table 2, synthesized curcuminoids
[4] = Table 3, ginger-derived natural product compounds

Antioxidant IC50 [2] [µg/mL] | Structure (SMILES) | Protection of cells from βA peptide-induced toxicity, in words [1] | Anti-βA peptide(1-42) ED50 PC12 (PC12 cells; [3]) | Anti-βA peptide(25-35) ED50 PC12 (PC12 cells; [3]) | Anti-βA peptide(1-42) ED50 IMR32 (IMR32 cells; [3]) | Anti-βA peptide(25-35) ED50 IMR32 (IMR32 cells; [3]) | Antioxidant activity (DPPH free radical scavenging), in words [2] | Anti-βA peptide(1-42) ED50 PC12 (PC12 cells; [4]) [µg/mL] | Anti-βA peptide(25-35) ED50 PC12 (PC12 cells; [4]) [µg/mL] | Anti-βA peptide(1-42) ED50 HUVEC (HUVEC cells; [4]) [µg/mL] | Anti-βA peptide(25-35) ED50 HUVEC (HUVEC cells; [4]) [µg/mL] | Anti-βA peptide(25-35) ED50 IMR32 (IMR32 cells; [4]) [µg/mL] | further results
– | CC(C)(C)[C@]1(O)CC2OC(=O)CC23C(=O)OC2OC(=O)[C@H](O)C231 (single isomer, unassigned; (-)) [(−)-Bilobalide, reference compound] | do not possess biological activity | – | – | – | – | – | – | – | – | – | – | Anti-βA peptide(1-42) ED50 PC12 (PC12 cells; Table 4, ginkgo compounds): toxic; Anti-βA peptide(25-35) ED50 PC12 (PC12 cells; Table 4, ginkgo compounds): toxic; Anti-βA peptide(1-42) ED50 HUVEC (HUVEC cells; Table 4, ginkgo compounds): toxic; Anti-βA peptide(25-35) ED50 HUVEC (HUVEC cells; Table 4, ginkgo compounds): toxic; Anti-βA peptide(1-42) ED50 IMR32 (IMR32 cells; Table 4, ginkgo compounds): toxic; Anti-βA peptide(25-35) ED50 IMR32 (IMR32 cells; Table 4, ginkgo compounds): toxic
>200 | O=C(CCc1ccccc1)CC(=O)CCc1ccc(O)cc1 [Compound 7] | cytotoxic | toxic | toxic | toxic | toxic | – | – | – | – | – | – | –
>200 | O=C(C=C(O)C=Cc1ccccc1)CCc1ccc(O)cc1 [Compound 8] | cytotoxic | toxic | toxic | toxic | toxic | – | – | – | – | – | – | –
>200 | COc1ccc(/C=C/C(=O)CC(=O)CCc2ccc(O)cc2)cc1 [Compound 10] | cytotoxic | toxic | toxic | toxic | toxic | – | – | – | – | – | – | –
– | CCC/C=C/C(=O)CCc1ccc(O)c(OC)c1 [Compound 11] | effectively protected | – | – | – | – | None of these compounds exhibited significant antioxidant activity | 12 | 15 | 20 | 20 | 15 | –
– | CCCCC/C=C/C(=O)CCc1ccc(O)c(OC)c1 [Compound 12] | effectively protected | – | – | – | – | None of these compounds exhibited significant antioxidant activity | 10 | 9.0 | 18 | 20 | 8.0 | –
– | CCCCCCCC/C=C/C(=O)CCc1ccc(O)c(OC)c1 [Compound 13, [9]-shogaol] | effectively protected | – | – | – | – | None of these compounds exhibited significant antioxidant activity | 4.0 | 3.0 | 8.0 | 8.0 | 2.0 | –
– | CCCCCC/C=C\CCCCCCCc1cccc(O)c1C(=O)O [Compound 15] | protect | – | – | – | – | do not possess antioxidant properties | – | – | – | – | – | Anti-βA peptide(1-42) ED50 PC12 (PC12 cells; Table 4, ginkgo compounds): 2.0 µg/mL; Anti-βA peptide(25-35) ED50 PC12 (PC12 cells; Table 4, ginkgo compounds): 3.0 µg/mL; Anti-βA peptide(1-42) ED50 HUVEC (HUVEC cells; Table 4, ginkgo compounds): 1.5 µg/mL; Anti-βA peptide(25-35) ED50 HUVEC (HUVEC cells; Table 4, ginkgo compounds): 5.0 µg/mL; Anti-βA peptide(1-42) ED50 IMR32 (IMR32 cells; Table 4, ginkgo compounds): 2.5 µg/mL; Anti-βA peptide(25-35) ED50 IMR32 (IMR32 cells; Table 4, ginkgo compounds): 3.5 µg/mL
– | CCCCCCCCCCC(=O)CCc1ccc(O)c(OC)c1 [Compound 45, [9]-dihydroshogaol] | effectively protected | – | – | – | – | – | – | – | – | – | – | –

Structure (SMILES) | Antioxidant IC50 [2] [µg/mL] | Protection of cells from βA peptide-induced toxicity, in words [1] | Anti-βA peptide(1-42) ED50 PC12 (PC12 cells; [3]) | Anti-βA peptide(25-35) ED50 PC12 (PC12 cells; [3]) | Anti-βA peptide(1-42) ED50 IMR32 (IMR32 cells; [3]) | Anti-βA peptide(25-35) ED50 IMR32 (IMR32 cells; [3]) | Antioxidant activity (DPPH free radical scavenging), in words [2] | Anti-βA peptide(1-42) ED50 PC12 (PC12 cells; [4]) [µg/mL] | Anti-βA peptide(25-35) ED50 PC12 (PC12 cells; [4]) [µg/mL] | Anti-βA peptide(1-42) ED50 HUVEC (HUVEC cells; [4]) [µg/mL] | Anti-βA peptide(25-35) ED50 HUVEC (HUVEC cells; [4]) [µg/mL] | Anti-βA peptide(25-35) ED50 IMR32 (IMR32 cells; [4]) [µg/mL] | further results
O=C(CCc1ccc(O)cc1)CC(=O)CCc1ccc(O)cc1 [Compound 9] | >200 | protected | 9.0 µg/mL | 10.0 µg/mL | 11.0 µg/mL | 12.0 µg/mL | – | – | – | – | – | – | –
